# Measurements as given in PubChem BioAssay AID1745844 (Carcinogenic Potency Database (CPDB), 2022).
# Calls of active or inactive are those of the source. The rule behind the calls is not given here.
# System: rodent lifetime carcinogenesis bioassay, tumor incidence TD50
# Assay: carcinogenic potency in animals, long-term in vivo studies, CPDB compilation (AID 1745844)
smiles,measurement,setting,value
C1CO1,TD50,"mouse, strain B6C3F1, females, inhaled, site: Harderian gland + lung, lesion: papillary cystadenoma, NOS + alveolar/bronchiolar adenoma + alveolar/bronchiolar carcinoma, dosed 102 weeks, study length 104 weeks",45.8 mg/kg/day
same,TD50,"mouse, strain B6C3F1, females, inhaled, site: Harderian gland, lesion: papillary cystadenoma, NOS, dosed 102 weeks, study length 104 weeks",142 mg/kg/day
same,TD50,"mouse, strain B6C3F1, females, inhaled, site: any site (literature study), lesion: several types, types named in the paper, dosed 102 weeks, study length 104 weeks",103 mg/kg/day
same,TD50,"mouse, strain B6C3F1, females, inhaled, site: duodenum + Harderian gland + kidney + lung + mediastinum + mammary gland + mesenteric lymph node + multiple organs + spleen + uterus, lesion: malignant lymphoma, NOS + papillary cystadenoma, NOS + alveolar/bronchiolar adenoma + alveolar/bronchiolar carcinoma + adenocarc, dosed 102 weeks, study length 104 weeks",39.2 mg/kg/day
same,TD50,"mouse, strain B6C3F1, females, inhaled, site: duodenum + kidney + mediastinum + mammary gland + mesenteric lymph node + multiple organs + spleen + uterus, lesion: malignant lymphoma, NOS + adenocarcinoma, NOS + adenosquamous carcinoma + malignant lymphoma, histiocytic type + adenoma, NOS, dosed 102 weeks, study length 104 weeks",79.2 mg/kg/day
same,TD50,"mouse, strain B6C3F1, females, inhaled, site: duodenum + kidney + mediastinum + mesenteric lymph node + multiple organs + spleen + uterus, lesion: malignant lymphoma, NOS + malignant lymphoma, histiocytic type, dosed 102 weeks, study length 104 weeks",139 mg/kg/day
same,TD50,"mouse, strain B6C3F1, females, inhaled, site: liver, lesion: hepatocellular adenoma + hepatocellular carcinoma + neoplastic nodule, dosed 102 weeks, study length 104 weeks",149 mg/kg/day
same,TD50,"mouse, strain B6C3F1, females, inhaled, site: liver, lesion: hepatocellular adenoma, dosed 102 weeks, study length 104 weeks",75.8 mg/kg/day
same,TD50,"mouse, strain B6C3F1, females, inhaled, site: lung, lesion: alveolar/bronchiolar adenoma + alveolar/bronchiolar carcinoma, dosed 102 weeks, study length 104 weeks",61.8 mg/kg/day
same,TD50,"mouse, strain B6C3F1, females, inhaled, site: lung, lesion: alveolar/bronchiolar adenoma, dosed 102 weeks, study length 104 weeks",87.5 mg/kg/day
same,TD50,"mouse, strain B6C3F1, females, inhaled, site: lung, lesion: alveolar/bronchiolar carcinoma, dosed 102 weeks, study length 104 weeks",200 mg/kg/day
same,TD50,"mouse, strain B6C3F1, females, inhaled, site: mammary gland, lesion: adenocarcinoma, NOS + adenosquamous carcinoma, dosed 102 weeks, study length 104 weeks",76.3 mg/kg/day
same,TD50,"mouse, strain B6C3F1, females, inhaled, site: uterus, lesion: adenocarcinoma, NOS + adenoma, NOS, dosed 102 weeks, study length 104 weeks",250 mg/kg/day
same,TD50,"mouse, strain B6C3F1, females, inhaled, site: uterus, lesion: adenocarcinoma, NOS, dosed 102 weeks, study length 104 weeks",297 mg/kg/day
same,TD50,"mouse, strain B6C3F1, males, inhaled, site: Harderian gland + lung, lesion: papillary cystadenoma, NOS + alveolar/bronchiolar adenoma + alveolar/bronchiolar carcinoma, dosed 102 weeks, study length 104 weeks",51.2 mg/kg/day
same,TD50,"mouse, strain B6C3F1, males, inhaled, site: Harderian gland, lesion: papillary cystadenoma, NOS, dosed 102 weeks, study length 104 weeks",110 mg/kg/day
same,TD50,"mouse, strain B6C3F1, males, inhaled, site: any site (literature study), lesion: several types, types named in the paper, dosed 102 weeks, study length 104 weeks",108 mg/kg/day
same,TD50,"mouse, strain B6C3F1, males, inhaled, site: liver, lesion: hepatocellular adenoma + hepatocellular carcinoma + neoplastic nodule, dosed 102 weeks, study length 104 weeks",273 mg/kg/day
same,TD50,"mouse, strain B6C3F1, males, inhaled, site: lung, lesion: alveolar/bronchiolar adenoma + alveolar/bronchiolar carcinoma, dosed 102 weeks, study length 104 weeks",65.7 mg/kg/day
same,TD50,"mouse, strain B6C3F1, males, inhaled, site: lung, lesion: alveolar/bronchiolar adenoma, dosed 102 weeks, study length 104 weeks",181 mg/kg/day
same,TD50,"mouse, strain B6C3F1, males, inhaled, site: lung, lesion: alveolar/bronchiolar carcinoma, dosed 102 weeks, study length 104 weeks",110 mg/kg/day
same,TD50,"rat, strain Fischer 344/Mai fBR, females, inhaled, site: brain, lesion: several types, types named in the paper, dosed 76 weeks, study length 78 weeks",237 mg/kg/day
same,TD50,"rat, strain Fischer 344/Mai fBR, females, inhaled, site: brain, lesion: several types, types named in the paper, dosed 101 weeks, study length 104 weeks",143 mg/kg/day
same,TD50,"rat, strain Fischer 344/Mai fBR, females, inhaled, site: pituitary gland, lesion: adenoma, dosed 76 weeks, study length 78 weeks",29.8 mg/kg/day (inactive)
same,TD50,"rat, strain Fischer 344/Mai fBR, males, inhaled, site: adrenal gland, lesion: pheochromocytoma, dosed 76 weeks, study length 78 weeks",26.1 mg/kg/day (inactive)
same,TD50,"rat, strain Fischer 344/Mai fBR, males, inhaled, site: brain, lesion: astrocytoma, dosed 76 weeks, study length 78 weeks",102 mg/kg/day
same,TD50,"rat, strain Fischer 344/Mai fBR, males, inhaled, site: brain, lesion: several types, types named in the paper, dosed 105 weeks, study length 108 weeks",70.7 mg/kg/day
same,carcinogen call,"rat, strain Fischer 344/Mai fBR, males, inhaled, site: pituitary gland, lesion: adenoma, dosed 76 weeks, study length 78 weeks",negative (inactive)
same,carcinogen call,"rat, strain Fischer 344/Mai fBR, males, inhaled, site: testis, lesion: interstitial-cell tumor, dosed 76 weeks, study length 78 weeks",negative (inactive)
same,TD50,"rat, strain Fischer 344, males, inhaled, site: brain, lesion: glioma, dosed 101 weeks, study length 104 weeks",121 mg/kg/day
same,TD50,"rat, strain Fischer 344, males, inhaled, site: peritoneum, lesion: mesothelioma, dosed 101 weeks, study length 104 weeks",30.8 mg/kg/day
same,TD50,"rat, strain Fischer 344, males, inhaled, site: spleen, lesion: mononuclear-cell leukemia, dosed 101 weeks, study length 104 weeks",47.3 mg/kg/day
same,TD50,"rat, strain Sprague-Dawley, females, by gavage, site: forestomach, lesion: squamous-cell carcinoma, dosed 107 weeks, study length 150 weeks",10.6 mg/kg/day
same,TD50,"rat, strain Sprague-Dawley, females, by gavage, site: mammary gland, lesion: adenofibroma, dosed 107 weeks, study length 150 weeks",10 mg/kg/day (inactive)
same,TD50,"rat, strain Sprague-Dawley, females, by gavage, site: stomach, lesion: several types, types named in the paper, dosed 107 weeks, study length 150 weeks",7.43 mg/kg/day
CN(N=O)C(=O)c1ccccc1C(=O)N(C)N=O,carcinogen call,"rat, strain Wistar, males, by gavage, site: any site (literature study), lesion: several types, types named in the paper, dosed 67 weeks, study length 67 weeks",negative (inactive)
C[C@@H]1C\C=C/C=C/C=C/C=C/[C@H](O[C@@H]2O[C@H](C)[C@@H](O)[C@H](N)[C@@H]2O)C[C@@H]2O[C@](O)(C[C@@H](O)C[C@@H]3O[C@@H]3/C=C\C(=O)O1)C[C@H](O)[C@H]2C(=O)O,carcinogen call,"rat, strain CFN, females, in feed, site: liver, lesion: malignant hepatoma, dosed 105 weeks, study length 105 weeks",negative (inactive)
same,TD50,"rat, strain CFN, males, in feed, site: lung, lesion: lymphosarcoma, dosed 105 weeks, study length 105 weeks",1970 mg/kg/day (inactive)
same,carcinogen call,"rat, strain CFN, males, in feed, site: thymus gland, lesion: thymoma, dosed 105 weeks, study length 105 weeks",negative (inactive)
